Results published in article PMC10385989, “Evaluation of the Ability of PAMPA Membranes to Emulate Biological Processes through the Abraham Solvation Parameter Model” (Membranes, 2023).

conditions: pH 7.4
Experimental: First, the top part of the skin-PAMPA (PAMPA-Certramide) sandwich, which contains the membrane, was hydrated overnight with the hydration solution. Different buffer solutions at pH 3, 4, 5, 6, 7, and 7.4 were prepared to solve the samples. To prepare them, 25 mL of concentrated PRISMA HTTM was diluted to 1 L with water, and 0.5 M NaOH was added to obtain the desired pH. Above pH 8, the skin-PAMPA membrane becomes degraded [40], so pH 7.4 was the highest pH used in the present work. In order to measure the intrinsic permeability, each sample was dissolved in the buffer solution with a pH that ensured the presence of the neutral form. […] In all instances, the pH of the acceptor compartment was 7.4.
A total of 180 µL of sample solution was placed in the donor compartment, and 200 µL of pH 7.4 buffer was placed in the acceptor compartment.
According to previous studies, in which the conditions in the skin-PAMPA measurements were optimized [40], the skin-PAMPA sandwich was incubated at 32 °C for 4 h. Afterwards, the concentration of the compounds was measured in both the donor and the acceptor plates. Additionally, the initial sample solution was quantified. […] The injection volume was 5 μL, and 3 to 5 replicate measurements were performed per compound. Every well-plate contained only one compound.
When the pH is different on the two sides of the membrane, a gradient-pH is created and the permeation of ionizable molecules can be altered. This gradient-pH implies two different permeability coefficients, one on each direction of the membrane, denoted by the subscript (D→A) or (A→D). Equation (5) has two unknowns, Pe(A→D) and Pe(D→A), so an iterative method has to be used to solve it. To this purpose, two different experiments were carried out for each compound, one with a gradient-pH and the other with an iso-pH, that is, the same pH in both compartments (7.4). For the iso-pH, Pe(A→D) = Pe(D→A).
Finally, Equation (5) was iteratively solved for Pe(D→A). Initially, ra was assumed to be rv, but the ra value was improved after each iteration by using the newly obtained Pe(D→A). The process continued until self-consistency was reached within the precision required (0.001). The Solver tool in Microsoft Excel was used for the iterative process.
In the donor compartment, a pH was used in which the compound was in its neutral form, whereas in the acceptor compartment, the buffer was at pH 7.4.

| Structure (SMILES) | log P0 (intrinsic permeability, PAMPA-Certramide) |
| --- | --- |
| COC(=O)Cc1ccc(O)cc1 [4-hydroxymethyl phenylacetate] | -5.07 |
| CCC1(CC)C(=O)NC(=O)NC1=O [5,5-diethylbarbituric acid (barbital), 5,5-diethylbarbituric acid] | -5.75 |
| CCC1(c2ccccc2)C(=O)NC(=O)NC1=O [5-ethyl-5-phenylbarbituric acid] | -6.05 |
| Nc1ccccc1 [aniline] | -4.55 |
| CCNc1nc(Cl)nc(NC(C)C)n1 [atrazine] | -4.67 |
| C[C@]12CCC(=O)C=C1CC[C@@H]1[C@@H]2CC[C@@]2(C)[C@H]1CC[C@]2(O)C(=O)CO [corteloxone] | -5.45 |
| CC(=O)[C@@]1(O)CC[C@H]2[C@@H]3CCC4=CC(=O)CC[C@]4(C)[C@H]3CC[C@@]21C [hydroxiprogesterone] | -4.70 |
| COc1ccccc1 [methyl phenyl ether] | -4.34 |
| CC(=O)CC(c1ccccc1)c1c(O)c2ccccc2oc1=O (stereo not drawn) [warfarin] | -4.63 |

conditions: cited from earlier work

| Structure (SMILES) | log P0 (permeability, PAMPA-IPM) |
| --- | --- |
| CCC1(c2ccccc2)C(=O)NC(=O)NC1=O [5-ethyl-5-phenylbarbituric acid] | -5.15 |
| CN1CCC[C@H]1c1cccnc1 [nicotine] | -4.58 |
| Oc1ccccc1 [phenol] | -4.14 |
